Measured values published in ChEMBL document CHEMBL1269000, “Synthesis and biological evaluation of [D-lysine]8cyclosporin A analogs as potential anti-HCV agents” (Bioorg Med Chem Lett, 2010).

Experiments:
[1] = molecular target: Peptidyl-prolyl cis-trans isomerase B (Homo sapiens, UniProt P23284); test: Binding affinity to cyclophilin B by ELISA
Hepatitis C virus = test: Antiviral activity against HCV after 72 hrs by stable luciferase reporter gene assay; type: functional, organism-based, Hepacivirus hominis
[2] = Cytotoxicity against human HuH7 cells assessed as release of lactate dehydrogenase; type: cell-based, Huh-7
Jurkat = test: Immunosuppressive activity against human Jurkat cells assessed as inhibition of phytohemagglutinin-M/phorbol myristate acetate-induced IL2 production; type: cell-based
[3] = molecular target: Peptidyl-prolyl cis-trans isomerase A (Homo sapiens, UniProt P62937); test: Binding affinity to cyclophilin A by ELISA
Chain of Peptidyl-prolyl cis-trans isomerase A (P62937 whole entry): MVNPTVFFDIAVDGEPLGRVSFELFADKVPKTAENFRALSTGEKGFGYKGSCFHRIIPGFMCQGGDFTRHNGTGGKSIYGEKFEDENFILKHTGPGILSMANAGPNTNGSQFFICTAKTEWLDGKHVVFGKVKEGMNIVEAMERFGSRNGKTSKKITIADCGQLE

Chain of Peptidyl-prolyl cis-trans isomerase B (P23284 whole entry): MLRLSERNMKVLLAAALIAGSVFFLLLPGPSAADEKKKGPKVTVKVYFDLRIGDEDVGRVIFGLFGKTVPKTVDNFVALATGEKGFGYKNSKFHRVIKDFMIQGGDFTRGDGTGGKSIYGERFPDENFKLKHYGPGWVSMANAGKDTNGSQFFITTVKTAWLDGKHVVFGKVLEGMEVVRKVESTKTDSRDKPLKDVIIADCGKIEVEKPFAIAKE

IC50 [1]: 24.2 nM
EC50 (Hepatitis C virus): 100 nM
EC90 (Hepatitis C virus): 270 nM
EC50 (Jurkat): 12 nM
IC50 [3]: 23 nM
SMILES: C/C=C/C[C@@H](C)[C@@H](O)[C@H]1C(=O)N[C@@H](CC)C(=O)N(C)CC(=O)N(C)[C@@H](CC(C)C)C(=O)N[C@@H](C(C)C)C(=O)N(C)[C@@H](CC(C)C)C(=O)N[C@@H](C)C(=O)N[C@H](CCC#N)C(=O)N(C)[C@@H](CC(C)C)C(=O)N(C)[C@@H](CC(C)C)C(=O)N(C)[C@@H](C(C)C)C(=O)N1C
IC50 ([2]; Homo sapiens, Huh-7): 2370 nM
IC90 ([2]; human, HuH7 cells): > 10000 nM
